Measured values as given in publication PMC8474115 (Journal of Medicinal Chemistry, 2021).
Counter-ions that a name gives are not always drawn. Like-named read-outs stand apart in the source and are kept apart here.

Key:
Test in all cases: Eurofins SafetyScreen panel
Adrenergic β1 = target: T1, Adrenergic β1 (Homo sapiens, UniProt P08588); type: binding
T1 construct: Eurofins (contract screening, SafetyScreen panel) PP223

Dopamine D1 = target: T2, Dopamine D1 (Homo sapiens, UniProt P21728); type: binding
T2 construct: purchased Eurofins (Panlabs) SafetyScreen87 Panel

Potassium Channel [hERG] = Potassium Channel [hERG] (Homo sapiens, UniProt Q12809)
[1] = target: T3, Protein Tyr Kinase, Insulin receptor (Homo sapiens, UniProt P06213); type: biochemical
T3 construct: Eurofins (contract screening, SafetyScreen panel) PP223

Progesterone PR-B = target: T4, Progesterone PR-B (Homo sapiens, UniProt P06401); type: binding
T4 construct: Eurofins (contract assay)

Opiate κ (OP2, KOP) = target: T5, Opiate κ (OP2, KOP) (Homo sapiens, UniProt P41145); type: binding
T5 construct: Eurofins (contract assay)

[2] = target: T6, Norepinephrine Transporter (NET) (Homo sapiens, UniProt P23975); type: binding
T6 construct: Eurofins (contract screening, SafetyScreen panel) PP223

GABA Transporter = target: T7, GABA Transporter (Rattus norvegicus, UniProt P23978); type: binding
T7 construct: Eurofins (contract assay)

[3] = target: T8, Glutamate Metabotropic, mGlu5 (Homo sapiens, UniProt P41594); type: binding
T8 construct: purchased Eurofins (Panlabs) SafetyScreen87 Panel

Serotonin 5-HT7 = target: T9, Serotonin 5-HT7 (Homo sapiens, UniProt P34969); type: binding
T9 construct: Eurofins (contract assay) 272320

Opiate μ (OP3, MOP) = target: T10, Opiate μ (OP3, MOP) (Homo sapiens, UniProt P35372); type: binding
T10 construct: Eurofins (contract assay)

[4] = target: T11, Serotonin Transporter (SERT) (Homo sapiens, UniProt P31645); type: binding
T11 construct: Eurofins (contract screening, SafetyScreen panel) PP223

Serotonin 5-HT5A = target: T12, Serotonin 5-HT5A (Homo sapiens, UniProt P47898); type: binding
T12 construct: Eurofins (contract assay) 272100

Adrenergic α1A = target: T13, Adrenergic α1A (Rattus norvegicus, UniProt P43140); type: binding
T13 construct: Eurofins (contract screening, SafetyScreen panel) PP223

Chemokine CCR1 = target: T14, Chemokine CCR1 (Homo sapiens, UniProt P32246); type: binding
T14 construct: purchased Eurofins (Panlabs) SafetyScreen87 Panel

Adrenergic α1D = target: T15, Adrenergic α1D (Homo sapiens, UniProt P25100); type: binding
T15 construct: Eurofins (contract screening, SafetyScreen panel) PP223

[5] = target: T16, Platelet Activating Factor (PAF) (Homo sapiens, UniProt P25105); type: binding
T16 construct: Eurofins (contract assay)

Glutamate NMDA, Glycine = Glutamate NMDA, Glycine (Rattus norvegicus, UniProt P35439); type: binding
Bradykinin B2 = target: T17, Bradykinin B2 (Homo sapiens, UniProt P30411); type: binding
T17 construct: Eurofins (contract screening, SafetyScreen panel) PP223

Tachykinin NK1 = target: T18, Tachykinin NK1 (Homo sapiens, UniProt P25103); type: binding
T18 construct: Eurofins (contract assay)

Serotonin 5-HT2B = target: T19, Serotonin 5-HT2B (Homo sapiens, UniProt P41595); type: binding
T19 construct: Eurofins (contract assay)

COX-1 = target: T20, COX-1 (Homo sapiens, UniProt P23219); type: biochemical
T20 construct: Eurofins

MAO-B = target: T21, MAO-B (Homo sapiens, UniProt P27338); type: biochemical
T21 construct: Eurofins

COX-2 = target: T22, COX-2 (Homo sapiens, UniProt P35354); type: biochemical
T22 construct: Eurofins

[6] = target: Ca Channel L-Type, Dihydropyridine (Rattus norvegicus, UniProt P22002); type: binding
Serotonin 5-HT4 = target: T23, Serotonin 5-HT4 (Cavia porcellus, UniProt O70528); type: binding, guinea pig
T23 construct: Eurofins (contract assay) 272000

[7] = read-out: %inh, 10 μM, additional batch

T1 sequence (P08588 whole entry): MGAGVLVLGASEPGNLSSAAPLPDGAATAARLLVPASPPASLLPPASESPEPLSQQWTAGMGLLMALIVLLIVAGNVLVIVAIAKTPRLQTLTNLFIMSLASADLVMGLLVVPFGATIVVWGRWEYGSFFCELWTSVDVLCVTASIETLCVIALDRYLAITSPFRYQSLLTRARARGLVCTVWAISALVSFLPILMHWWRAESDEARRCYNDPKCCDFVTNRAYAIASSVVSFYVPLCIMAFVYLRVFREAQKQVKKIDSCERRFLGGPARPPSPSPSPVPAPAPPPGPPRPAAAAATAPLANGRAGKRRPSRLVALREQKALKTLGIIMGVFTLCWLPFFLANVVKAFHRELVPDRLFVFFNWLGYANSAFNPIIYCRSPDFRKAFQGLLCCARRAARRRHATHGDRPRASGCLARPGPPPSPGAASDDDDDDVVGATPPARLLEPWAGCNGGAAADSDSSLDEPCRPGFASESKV
T12 sequence (P47898 whole entry): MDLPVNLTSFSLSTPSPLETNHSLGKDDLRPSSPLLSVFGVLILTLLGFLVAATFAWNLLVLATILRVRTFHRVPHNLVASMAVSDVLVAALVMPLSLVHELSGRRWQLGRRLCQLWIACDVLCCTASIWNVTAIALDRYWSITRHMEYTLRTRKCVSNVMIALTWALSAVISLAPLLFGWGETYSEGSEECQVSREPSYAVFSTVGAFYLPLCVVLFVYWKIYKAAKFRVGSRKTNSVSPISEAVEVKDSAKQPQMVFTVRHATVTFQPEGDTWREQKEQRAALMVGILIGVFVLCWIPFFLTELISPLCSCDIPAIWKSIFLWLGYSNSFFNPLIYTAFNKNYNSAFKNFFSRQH
T10 sequence (P35372 whole entry): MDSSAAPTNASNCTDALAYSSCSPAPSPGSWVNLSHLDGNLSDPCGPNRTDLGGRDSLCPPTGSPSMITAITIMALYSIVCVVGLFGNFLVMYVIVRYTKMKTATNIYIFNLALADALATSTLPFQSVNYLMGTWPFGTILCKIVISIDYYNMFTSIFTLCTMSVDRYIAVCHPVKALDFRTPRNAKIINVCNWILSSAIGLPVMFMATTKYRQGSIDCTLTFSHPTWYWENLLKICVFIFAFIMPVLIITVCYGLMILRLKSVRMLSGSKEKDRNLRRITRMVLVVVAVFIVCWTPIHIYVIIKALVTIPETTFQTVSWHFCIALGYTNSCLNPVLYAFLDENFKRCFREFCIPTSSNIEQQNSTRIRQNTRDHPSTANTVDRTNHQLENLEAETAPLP
T9 sequence (P34969 whole entry): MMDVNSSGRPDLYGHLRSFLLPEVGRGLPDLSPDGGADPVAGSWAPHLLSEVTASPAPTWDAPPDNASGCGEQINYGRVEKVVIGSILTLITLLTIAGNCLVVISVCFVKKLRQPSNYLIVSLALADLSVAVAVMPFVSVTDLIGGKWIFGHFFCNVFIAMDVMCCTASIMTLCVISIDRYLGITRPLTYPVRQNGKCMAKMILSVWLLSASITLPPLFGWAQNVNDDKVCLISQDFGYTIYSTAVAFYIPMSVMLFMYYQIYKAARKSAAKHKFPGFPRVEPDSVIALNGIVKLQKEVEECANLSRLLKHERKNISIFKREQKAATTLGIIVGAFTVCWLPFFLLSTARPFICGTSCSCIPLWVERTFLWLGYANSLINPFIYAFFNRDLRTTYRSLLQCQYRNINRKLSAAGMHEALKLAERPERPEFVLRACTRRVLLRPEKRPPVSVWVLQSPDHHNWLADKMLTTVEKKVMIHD
Chain of Ca Channel L-Type, Dihydropyridine (P22002 whole entry): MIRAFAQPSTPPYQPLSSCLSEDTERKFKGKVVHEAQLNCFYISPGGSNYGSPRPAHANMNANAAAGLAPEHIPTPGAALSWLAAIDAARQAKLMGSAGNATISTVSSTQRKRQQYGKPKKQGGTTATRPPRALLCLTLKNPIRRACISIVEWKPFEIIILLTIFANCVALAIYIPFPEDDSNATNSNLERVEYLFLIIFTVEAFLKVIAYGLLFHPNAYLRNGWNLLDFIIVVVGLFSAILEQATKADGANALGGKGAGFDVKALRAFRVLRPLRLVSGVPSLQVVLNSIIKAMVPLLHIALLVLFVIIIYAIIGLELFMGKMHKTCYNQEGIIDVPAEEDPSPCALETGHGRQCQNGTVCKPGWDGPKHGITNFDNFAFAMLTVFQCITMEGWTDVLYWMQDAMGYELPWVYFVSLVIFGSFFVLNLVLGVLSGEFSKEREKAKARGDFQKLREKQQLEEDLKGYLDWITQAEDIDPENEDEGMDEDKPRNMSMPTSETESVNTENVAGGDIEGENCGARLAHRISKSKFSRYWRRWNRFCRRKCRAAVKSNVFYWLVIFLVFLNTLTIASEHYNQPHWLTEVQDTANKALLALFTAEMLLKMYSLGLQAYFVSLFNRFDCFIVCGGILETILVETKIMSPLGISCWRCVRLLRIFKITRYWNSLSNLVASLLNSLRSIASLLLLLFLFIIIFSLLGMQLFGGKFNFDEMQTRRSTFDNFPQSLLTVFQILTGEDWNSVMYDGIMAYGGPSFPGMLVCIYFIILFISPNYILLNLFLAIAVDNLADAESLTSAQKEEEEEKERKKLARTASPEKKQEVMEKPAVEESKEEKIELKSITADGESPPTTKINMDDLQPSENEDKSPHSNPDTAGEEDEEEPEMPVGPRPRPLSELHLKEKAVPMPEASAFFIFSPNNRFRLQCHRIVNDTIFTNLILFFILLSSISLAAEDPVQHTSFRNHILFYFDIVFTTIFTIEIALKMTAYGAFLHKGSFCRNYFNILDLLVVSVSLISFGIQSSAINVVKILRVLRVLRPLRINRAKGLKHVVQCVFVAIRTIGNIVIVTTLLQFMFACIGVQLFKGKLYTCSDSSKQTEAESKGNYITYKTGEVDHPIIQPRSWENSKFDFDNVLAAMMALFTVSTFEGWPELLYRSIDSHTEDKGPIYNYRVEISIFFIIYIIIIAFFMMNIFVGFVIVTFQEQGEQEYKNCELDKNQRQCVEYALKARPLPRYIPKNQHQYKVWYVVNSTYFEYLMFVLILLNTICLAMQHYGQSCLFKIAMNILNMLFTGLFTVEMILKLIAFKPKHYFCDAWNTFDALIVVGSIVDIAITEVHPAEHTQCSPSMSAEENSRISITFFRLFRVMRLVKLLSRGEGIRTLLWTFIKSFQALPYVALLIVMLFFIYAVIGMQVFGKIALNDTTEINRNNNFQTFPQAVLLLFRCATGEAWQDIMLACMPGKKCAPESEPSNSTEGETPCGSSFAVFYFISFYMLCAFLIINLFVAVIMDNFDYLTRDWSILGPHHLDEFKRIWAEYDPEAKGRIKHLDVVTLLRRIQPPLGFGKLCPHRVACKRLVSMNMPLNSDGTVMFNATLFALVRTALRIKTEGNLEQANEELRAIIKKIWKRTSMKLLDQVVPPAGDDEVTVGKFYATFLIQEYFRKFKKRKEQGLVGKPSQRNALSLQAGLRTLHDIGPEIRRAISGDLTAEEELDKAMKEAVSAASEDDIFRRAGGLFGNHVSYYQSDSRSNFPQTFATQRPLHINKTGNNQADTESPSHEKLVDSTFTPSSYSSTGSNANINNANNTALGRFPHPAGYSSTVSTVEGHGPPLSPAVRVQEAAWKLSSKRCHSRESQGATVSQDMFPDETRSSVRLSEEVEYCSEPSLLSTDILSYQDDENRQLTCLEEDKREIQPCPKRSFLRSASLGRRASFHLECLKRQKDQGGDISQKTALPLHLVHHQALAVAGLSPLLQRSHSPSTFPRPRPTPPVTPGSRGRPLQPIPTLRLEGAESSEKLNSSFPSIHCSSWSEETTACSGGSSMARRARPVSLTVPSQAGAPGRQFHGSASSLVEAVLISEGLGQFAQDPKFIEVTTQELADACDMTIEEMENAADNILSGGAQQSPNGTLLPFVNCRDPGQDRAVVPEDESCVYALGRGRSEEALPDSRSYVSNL
T5 sequence (P41145 whole entry): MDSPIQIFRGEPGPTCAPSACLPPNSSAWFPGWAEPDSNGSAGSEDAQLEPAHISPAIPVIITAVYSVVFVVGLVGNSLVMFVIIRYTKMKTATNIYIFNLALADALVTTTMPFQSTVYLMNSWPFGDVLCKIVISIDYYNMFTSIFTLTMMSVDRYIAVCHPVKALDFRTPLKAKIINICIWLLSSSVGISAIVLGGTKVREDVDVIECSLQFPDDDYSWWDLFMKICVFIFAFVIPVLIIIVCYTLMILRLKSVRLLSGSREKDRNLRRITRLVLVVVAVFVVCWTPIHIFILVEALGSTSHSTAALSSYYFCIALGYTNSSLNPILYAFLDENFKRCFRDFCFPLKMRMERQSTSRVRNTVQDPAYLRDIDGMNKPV
T19 sequence (P41595 whole entry): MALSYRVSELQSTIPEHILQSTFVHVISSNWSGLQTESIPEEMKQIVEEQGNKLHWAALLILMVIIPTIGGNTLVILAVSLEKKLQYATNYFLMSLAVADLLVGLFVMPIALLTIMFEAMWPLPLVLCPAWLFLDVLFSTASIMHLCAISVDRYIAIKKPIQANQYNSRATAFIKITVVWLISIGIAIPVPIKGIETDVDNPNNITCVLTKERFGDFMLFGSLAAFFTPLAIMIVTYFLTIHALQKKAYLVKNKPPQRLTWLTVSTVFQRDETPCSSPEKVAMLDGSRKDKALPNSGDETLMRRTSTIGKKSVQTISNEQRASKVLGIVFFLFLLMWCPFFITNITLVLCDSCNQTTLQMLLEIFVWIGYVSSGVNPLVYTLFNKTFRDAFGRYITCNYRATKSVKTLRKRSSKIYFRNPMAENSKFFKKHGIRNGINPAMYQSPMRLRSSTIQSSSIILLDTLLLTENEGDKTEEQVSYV

Q: For `O=S(=O)(c1cccc(F)c1)n1ccc2c(N3CCNCC3)nc3ccccc3c21` [FPPQ, 1-[(3-Fluorophenyl)sulfonyl]-4-(piperazin-1-yl)-1H-pyrrolo[3,2-c]quinoline dihydrochloride], which IC50 (Adrenergic β1) is on record?
A: 300 nM

Q: What about the Ki (Adrenergic β1) of the same compound?
A: 170 nM

Q: What about the inhibition at 0.01 µM (Adrenergic β1; read-out: %inh, 10 nM) of the same compound?
A: -3%

Q: What about the inhibition at 0.1 µM (Adrenergic β1; read-out: %inh, 0.1 μM) of the same compound?
A: 27%

Q: And the inhibition at 1 µM (Adrenergic β1; read-out: %inh, 1 μM)?
A: 75%

Q: What about the inhibition at 10 µM (Adrenergic β1; [7]) of the same compound?
A: 102%

Q: And the inhibition at 10 µM (Dopamine D1)?
A: 27%

Q: What about the Ki (Potassium Channel [hERG]) of the same compound?
A: 940 nM

Q: What about the inhibition at 10 µM [1] of the same compound?
A: -6%

Q: What about the inhibition at 10 µM (Progesterone PR-B) of the same compound?
A: 21%

Q: And the IC50 (Opiate κ (OP2, KOP))?
A: 8180 nM

Q: What about the Ki (Opiate κ (OP2, KOP)) of the same compound?
A: 3270 nM

Q: What about the inhibition at 0.1 µM (Opiate κ (OP2, KOP); read-out: %inh, 0.1 μM) of the same compound?
A: 5%

Q: What about the inhibition at 1 µM (Opiate κ (OP2, KOP); read-out: %inh, 1 μM) of the same compound?
A: 8%

Q: And the inhibition at 10 µM (Opiate κ (OP2, KOP); read-out: %inh, 10 μM)?
A: 55%

Q: What about the inhibition at 10 µM (Opiate κ (OP2, KOP); [7]) of the same compound?
A: 64%

Q: What about the inhibition at 100 µM (Opiate κ (OP2, KOP); read-out: %inh, 100 μM) of the same compound?
A: 99%

Q: And the IC50 [2]?
A: 1250 nM

Q: And the Ki [2]?
A: 1240 nM

Q: And the inhibition at 0.01 µM ([2]; read-out: %inh, 10 nM)?
A: 1%

Q: What about the inhibition at 0.1 µM ([2]; read-out: %inh, 0.1 μM) of the same compound?
A: 8%

Q: And the inhibition at 1 µM ([2]; read-out: %inh, 1 μM)?
A: 42%

Q: And the inhibition at 10 µM ([2]; read-out: %inh, 10 μM)?
A: 94%

Q: And the inhibition at 10 µM [2, 7]?
A: 96%

Q: And the inhibition at 10 µM (GABA Transporter)?
A: 3%

Q: What about the inhibition at 10 µM [3] of the same compound?
A: 16%

Q: And the inhibition at 0.1 µM (Serotonin 5-HT7; read-out: %inh, 0.1 μM)?
A: -1%

Q: And the inhibition at 1 µM (Serotonin 5-HT7; read-out: %inh, 1 μM)?
A: 21%

Q: What about the inhibition at 10 µM (Serotonin 5-HT7; read-out: %inh, 10 μM) of the same compound?
A: 65%

Q: What about the inhibition at 10 µM (Serotonin 5-HT7; [7]) of the same compound?
A: 67%

Q: And the inhibition at 100 µM (Serotonin 5-HT7; read-out: %inh, 100 μM)?
A: 93%

Q: And the IC50 (Opiate μ (OP3, MOP))?
A: 7080 nM

Q: What about the inhibition at 0.1 µM (Opiate μ (OP3, MOP); read-out: %inh, 0.1 μM) of the same compound?
A: 3%

Q: What about the inhibition at 10 µM (Opiate μ (OP3, MOP); read-out: %inh, 10 μM) of the same compound?
A: 59%

Q: What about the inhibition at 10 µM (Opiate μ (OP3, MOP); [7]) of the same compound?
A: 61%

Q: And the inhibition at 100 µM (Opiate μ (OP3, MOP); read-out: %inh, 100 μM)?
A: 97%

Q: What about the inhibition at 10 µM [4] of the same compound?
A: 18%

Q: And the IC50 (Serotonin 5-HT5A)?
A: 5580 nM

Q: What about the inhibition at 0.1 µM (Serotonin 5-HT5A; read-out: %inh, 0.1 μM) of the same compound?
A: 1%

Q: And the inhibition at 10 µM (Serotonin 5-HT5A; read-out: %inh, 10 μM)?
A: 64%

Q: And the inhibition at 10 µM (Serotonin 5-HT5A; [7])?
A: 61%

Q: And the inhibition at 100 µM (Serotonin 5-HT5A; read-out: %inh, 100 μM)?
A: 98%

Q: What about the inhibition at 10 µM (Adrenergic α1A) of the same compound?
A: 34%

Q: And the inhibition at 10 µM (Chemokine CCR1)?
A: -6%

Q: And the inhibition at 10 µM (Adrenergic α1D)?
A: 24%

Q: And the inhibition at 10 µM [5]?
A: 14%

Q: And the inhibition at 10 µM (Glutamate NMDA, Glycine)?
A: -1%

Q: And the inhibition at 10 µM (Bradykinin B2)?
A: 0%

Q: What about the IC50 (Tachykinin NK1) of the same compound?
A: 13700 nM

Q: What about the Ki (Tachykinin NK1) of the same compound?
A: 9920 nM

Q: And the inhibition at 0.1 µM (Tachykinin NK1; 0.1 μM)?
A: 0%

Q: What about the inhibition at 1 µM (Tachykinin NK1; 1 μM) of the same compound?
A: 10%

Q: What about the inhibition at 10 µM (Tachykinin NK1) of the same compound?
A: 40%

Q: What about the inhibition at 10 µM (Tachykinin NK1; additional batch) of the same compound?
A: 58%

Q: And the inhibition at 100 µM (Tachykinin NK1; 100 μM)?
A: 92%

Q: And the IC50 (Serotonin 5-HT2B)?
A: 260 nM

Q: And the Ki (Serotonin 5-HT2B)?
A: 170 nM

Q: And the inhibition at 0.01 µM (Serotonin 5-HT2B; read-out: %inh, 10 nM)?
A: 13%

Q: What about the inhibition at 0.1 µM (Serotonin 5-HT2B; read-out: %inh, 0.1 μM) of the same compound?
A: 31%

Q: What about the inhibition at 1 µM (Serotonin 5-HT2B; read-out: %inh, 1 μM) of the same compound?
A: 71%

Q: And the inhibition at 10 µM (Serotonin 5-HT2B; read-out: %inh, 10 μM)?
A: 96%

Q: And the inhibition at 10 µM (Serotonin 5-HT2B; [7])?
A: 97%

Q: What about the inhibition at 10 µM (COX-1) of the same compound?
A: -6%

Q: And the inhibition at 10 µM (MAO-B)?
A: 21%

Q: What about the inhibition at 10 µM (COX-2) of the same compound?
A: -13%

Q: And the inhibition at 0.01 µM ([6]; 10 nM)?
A: -4%

Q: And the inhibition at 0.1 µM ([6]; 0.1 μM)?
A: 3%

Q: What about the inhibition at 1 µM ([6]; 1 μM) of the same compound?
A: 60%

Q: What about the inhibition at 10 µM [6] of the same compound?
A: 89%

Q: What about the inhibition at 10 µM ([6]; additional batch) of the same compound?
A: 78%

Q: And the inhibition at 10 µM (Serotonin 5-HT4)?
A: 30%
